Assays:
Type in all cases: binding
CCR4 = target: T1, CCR4 (Homo sapiens, UniProt P51679); experiment: NanoBRET screen HiBiT-CCR4 in HEK293
T1 construct: purchased Promega (in-house HiBiT-GPCR construct library, NanoBRET)
T1 sequence (P51679 1-360): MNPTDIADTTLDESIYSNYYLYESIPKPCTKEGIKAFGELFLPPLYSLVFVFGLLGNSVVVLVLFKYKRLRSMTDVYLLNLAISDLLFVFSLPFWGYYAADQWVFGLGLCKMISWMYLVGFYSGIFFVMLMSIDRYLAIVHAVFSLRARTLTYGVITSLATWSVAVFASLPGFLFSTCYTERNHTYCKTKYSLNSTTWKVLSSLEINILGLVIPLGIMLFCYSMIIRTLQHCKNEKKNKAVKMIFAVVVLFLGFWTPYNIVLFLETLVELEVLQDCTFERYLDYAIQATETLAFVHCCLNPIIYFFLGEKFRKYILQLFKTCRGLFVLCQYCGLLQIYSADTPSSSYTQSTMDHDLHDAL
Protocol: (§1) Each tracer candidate was screened across the entire library of HiBiT-GPCR constructs using NanoBRET as the detection modality. As depicted in Figure 4A, the specificity of interactions was evaluated through decrease in BRET due to competitive displacement of a bound tracer by excess parental compound. Each tracer was analyzed for binding to each HiBiT-GPCR fusion in the absence and in the presence of competing parental compound. Briefly, HEK293 cells were transfected with HiBiT-GPCR constructs diluted into promoterless DNA to reduce expression and maximize translocation to the cell surface. Each tracer candidate was then screened at concentrations of 1 μM and 0.1 μM across cells expressing these fusions. Cells were treated for 1.5 h with tracer either alone or in the presence of 20 μM competing parental compound (i.e., control). BRET was measured upon addition of purified LgBiT and subsequent complementation with HiBiT genetically fused to a GPCR. The specificity of interactions was assessed through a decrease in BRET signal due to competitive displacement of the bound tracer. To further gauge the robustness of these interactions, the fold response over the control (i.e., BRETtracer/BRETcontrol) was calculated. We chose a 1.5-fold response, which translates to ≥7-fold signal over noise as the minimal threshold required to score an interaction as positive. […]. Below we highlight the screening results obtained for our exemplary fluorescent tracers based on Clozapine, Amitriptyline and AZD1283.
(§2) HiBiT-GPCR DNA constructs were diluted in 10 mM Tris pH 8 to a final concentration of 0.01 μg/μL, arrayed in 96-well plates and stored at −20 °C. For transfection, HEK293 cells were suspended in Opti-MEM (without phenol red) supplemented with 2% fetal bovine serum (Seradigm) and 100 units/mL penicillin–streptomycin (Gibco) at a final concentration of 220,000 cells/mL and dispensed into white 96-well plates at 90 μL/well. Subsequent transfections and screens were carried using an Agilent Bravo Automated Liquid Handling Platform. First, the 96-well HiBiT DNA arrays were diluted 25-fold in Opti-MEM (without serum or phenol red) to a final concentration of 0.0004 μg/μL and 20 μL of the diluted DNAs were transferred into new 96-well plates. Next, promoterless carrier DNA (1 μg/μL) was diluted 25-fold (0.04 μg/μL) and then dispensed into the diluted arrays at 20 μL/well. Following brief mixing, Viafect transfection reagent (Promega) diluted 16-fold into Opti-MEM was dispensed into the plates at 40 μL/well. After mixing by pipetting, plates were incubated for 10 min on the pipetting station deck. The DNA-transfection reagent complexes were then added to plates containing cells. To facilitate the screen, 10 μL of DNA-transfection reagent complexes were added in duplicates to the top 4 and bottom 4 rows, resulting in two identical 48-well arrays per plate. Plates with transfected cells were incubated for 18–20 h at 37 °C/5% CO2. A screen of each tracer across the entire library using two different concentrations requires duplicate plates of transfected cells. Depending on the number of tracers being screened, transfections can be scaled up using the same ratios. The next day, for each tracer, four 20× screening solutions in tracer dilution buffer (Promega) were prepared: two duplicates at final concentration of 20 μM and two duplicates at a final concentration of 2 μM. A competing unmodified compound was added to one of each duplicate at a final concentration of 400 μM. The four resulting solutions were diluted 4-fold in Opti-MEM without serum or phenol red to generate 5× solutions (5 µM and 0.5 µM tracer +/− 100 μM competing compound). To screen the library, a BioTek MultiFlo FX liquid dispenser was used to dispense 22.5 µL of tracer solution to the top 4 rows and 22.5 µL tracer + competing compound solution to the 4 bottom rows. Plates were briefly mixed on an orbital shaker and incubated for 1.5 h at room temperature. […]

CCR7 = target: T2, CCR7 (Homo sapiens, UniProt P32248); experiment: NanoBRET screen HiBiT-CCR7 in HEK293
T2 construct: purchased Promega (in-house HiBiT-GPCR construct library, NanoBRET)
T2 sequence (P32248 25-378): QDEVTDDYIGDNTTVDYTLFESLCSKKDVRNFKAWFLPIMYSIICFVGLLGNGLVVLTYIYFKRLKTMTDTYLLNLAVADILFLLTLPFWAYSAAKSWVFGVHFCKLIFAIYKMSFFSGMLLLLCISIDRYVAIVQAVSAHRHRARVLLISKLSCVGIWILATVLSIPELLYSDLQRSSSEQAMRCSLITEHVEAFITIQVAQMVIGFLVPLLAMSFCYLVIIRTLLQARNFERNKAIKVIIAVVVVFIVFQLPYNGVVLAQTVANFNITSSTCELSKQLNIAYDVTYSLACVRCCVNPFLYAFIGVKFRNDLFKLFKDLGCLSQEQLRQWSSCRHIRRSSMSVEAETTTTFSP
Protocol: as §1, §2

CXCR4 = target: T3, CXCR4 (Homo sapiens, UniProt P61073); experiment: NanoBRET screen HiBiT-CXCR4 in HEK293
T3 construct: purchased Promega (in-house HiBiT-GPCR construct library, NanoBRET)
T3 sequence (P61073 whole entry): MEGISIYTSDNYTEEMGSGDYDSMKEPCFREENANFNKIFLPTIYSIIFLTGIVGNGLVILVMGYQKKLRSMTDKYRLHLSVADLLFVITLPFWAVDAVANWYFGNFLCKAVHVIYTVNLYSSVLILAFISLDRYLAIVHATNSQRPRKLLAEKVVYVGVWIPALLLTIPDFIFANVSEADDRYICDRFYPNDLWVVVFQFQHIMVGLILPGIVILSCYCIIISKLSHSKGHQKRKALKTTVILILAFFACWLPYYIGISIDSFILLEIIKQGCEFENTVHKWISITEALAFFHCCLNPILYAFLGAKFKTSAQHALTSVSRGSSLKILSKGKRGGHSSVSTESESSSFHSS
Protocol: as §1, §2

FZD5 = target: T4, FZD5 (Homo sapiens, UniProt Q13467); experiment: NanoBRET screen HiBiT-FZD5 in HEK293
T4 construct: purchased Promega (in-house HiBiT-GPCR construct library, NanoBRET)
T4 sequence (Q13467 27-585): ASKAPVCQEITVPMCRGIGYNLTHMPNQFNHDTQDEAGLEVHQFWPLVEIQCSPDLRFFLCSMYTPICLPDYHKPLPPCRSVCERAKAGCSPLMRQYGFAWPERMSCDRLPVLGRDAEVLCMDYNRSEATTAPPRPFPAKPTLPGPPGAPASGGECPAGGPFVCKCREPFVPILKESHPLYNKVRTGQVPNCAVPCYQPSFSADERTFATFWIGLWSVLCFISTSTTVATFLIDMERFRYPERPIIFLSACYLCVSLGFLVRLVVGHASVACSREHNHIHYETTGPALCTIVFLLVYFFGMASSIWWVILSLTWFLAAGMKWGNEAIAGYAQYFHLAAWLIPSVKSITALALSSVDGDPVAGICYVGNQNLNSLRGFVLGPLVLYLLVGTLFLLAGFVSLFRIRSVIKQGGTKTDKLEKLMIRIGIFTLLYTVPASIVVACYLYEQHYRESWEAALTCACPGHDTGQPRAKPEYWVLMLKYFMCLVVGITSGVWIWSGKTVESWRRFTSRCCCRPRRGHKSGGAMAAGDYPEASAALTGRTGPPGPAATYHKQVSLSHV
Protocol: as §1, §2

P2RY1 = target: T5, P2RY1 (Homo sapiens, UniProt P47900); experiment: NanoBRET screen HiBiT-P2RY1 in HEK293
T5 construct: purchased Promega (in-house HiBiT-GPCR construct library, NanoBRET)
T5 sequence (P47900 whole entry): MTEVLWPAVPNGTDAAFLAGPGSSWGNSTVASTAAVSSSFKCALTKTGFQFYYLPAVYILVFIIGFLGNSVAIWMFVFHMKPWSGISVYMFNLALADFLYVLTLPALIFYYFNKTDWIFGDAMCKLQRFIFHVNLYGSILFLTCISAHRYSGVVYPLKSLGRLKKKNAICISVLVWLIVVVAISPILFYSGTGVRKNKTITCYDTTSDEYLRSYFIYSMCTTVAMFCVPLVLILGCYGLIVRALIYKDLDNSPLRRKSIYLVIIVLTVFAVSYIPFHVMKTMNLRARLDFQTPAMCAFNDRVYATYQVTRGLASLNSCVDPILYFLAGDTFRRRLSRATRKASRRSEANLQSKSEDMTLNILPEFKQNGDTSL
Protocol: as §1, §2

BDKRB2 = target: T6, BDKRB2 (Homo sapiens, UniProt P30411); experiment: NanoBRET screen HiBiT-BDKRB2 in HEK293
T6 construct: purchased Promega (in-house HiBiT-GPCR construct library, NanoBRET)
T6 sequence (P30411 1-391): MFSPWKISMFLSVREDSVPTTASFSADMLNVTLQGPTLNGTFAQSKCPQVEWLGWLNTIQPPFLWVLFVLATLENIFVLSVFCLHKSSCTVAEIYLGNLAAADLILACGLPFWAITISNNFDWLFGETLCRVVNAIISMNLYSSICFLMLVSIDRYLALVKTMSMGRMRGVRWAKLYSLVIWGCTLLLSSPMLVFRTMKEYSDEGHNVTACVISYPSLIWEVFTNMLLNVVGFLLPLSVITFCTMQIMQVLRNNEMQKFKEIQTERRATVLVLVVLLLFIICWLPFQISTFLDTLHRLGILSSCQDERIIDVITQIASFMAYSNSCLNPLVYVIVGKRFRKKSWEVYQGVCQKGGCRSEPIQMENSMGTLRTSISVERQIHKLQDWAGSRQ
Protocol: as §1, §2

Row | Structure (SMILES) | NanoBRET Fold Response (CCR4; CCR4, tracer 0.1μM) | NanoBRET Fold Response (CCR4; CCR4, tracer 1μM) | NanoBRET Fold Response (CCR7; CCR7, tracer 0.1μM) | NanoBRET Fold Response (CCR7; CCR7, tracer 1μM) | NanoBRET Fold Response (CXCR4; CXCR4, tracer 0.1μM) | NanoBRET Fold Response (CXCR4; CXCR4, tracer 1μM) | NanoBRET Fold Response (FZD5; FZD5, tracer 0.1μM) | NanoBRET Fold Response (FZD5; FZD5, tracer 1μM) | NanoBRET Fold Response (P2RY1; P2RY1, tracer 0.1μM) | NanoBRET Fold Response (P2RY1; P2RY1, tracer 1μM) | NanoBRET Fold Response (BDKRB2; BDKRB2, tracer 0.1μM) | NanoBRET Fold Response (BDKRB2; BDKRB2, tracer 1μM) | also measured
1 | CCCn1c(=O)c2[nH]c(-c3ccc(OCC(=O)NCCNC(=O)CCOCCNC(=O)c4ccc(CNC(=O)CCc5ccc6n5[B-](F)(F)[N+]5=C(c7ccc[nH]7)C=CC5=C6)cc4)cc3)nc2n(CCC)c1=O [XAC-3-NB590] | 1.36 | 1.29 | 0.99 | 1.04 | 0.90 | 0.92 | 1.13 | 0.95 | 1.05 | 0.96 | 1.00 | 1.14 | –
2 | COc1ccccc1N1CCN(CCCCN2C(=O)c3ccc(CNC(=O)CCOCCNC(=O)c4ccc(CNC(=O)CCc5ccc6n5[B-](F)(F)[N+]5=C(c7ccc[nH]7)C=CC5=C6)cc4)cc3C2=O)CC1 [NAN-190-3-NB590] | 0.85 | 1.11 | 1.01 | 1.00 | 1.24 | 1.08 | 0.97 | 1.00 | 0.97 | 1.00 | 0.97 | 0.88 | –
3 | O=C(CCc1ccc2n1[B-](F)(F)[N+]1=C(c3ccc[nH]3)C=CC1=C2)NCc1ccc(C(=O)NCCOCCOCCNCC(O)COc2cccc3ccccc23)cc1 (centres unmarked) [Propranolol-3-NB590] | – | – | – | – | – | – | – | – | – | – | – | – | NanoBRET Fold Response (CCR4; CCR4, 0.1μM): 1.11; NanoBRET Fold Response (CCR4; CCR4, 1μM): 1.03; NanoBRET Fold Response (CCR7; CCR7, 0.1μM): 1.03; NanoBRET Fold Response (CCR7; CCR7, 1μM): 1.01; NanoBRET Fold Response (CXCR4; CXCR4, 0.1μM): 1.04; NanoBRET Fold Response (CXCR4; CXCR4, 1μM): 1.02; NanoBRET Fold Response (FZD5; FZD5, 0.1μM): 1.07; NanoBRET Fold Response (FZD5; FZD5, 1μM): 1.02; NanoBRET Fold Response (P2RY1; P2RY1, 0.1μM): 1.02; NanoBRET Fold Response (P2RY1; P2RY1, 1μM): 0.97; NanoBRET Fold Response (BDKRB2; BDKRB2, 0.1μM): 1.04; NanoBRET Fold Response (BDKRB2; BDKRB2, 1μM): 1.07
4 | COc1ccc2c(n1)c(CCNC(C)=O)cn2CCNC(=O)CCc1ccc2n1[B-](F)(F)[N+]1=C(c3ccc[nH]3)C=CC1=C2 [Azamelatonin-1-NB590] | – | – | – | – | – | – | – | – | – | – | – | – | NanoBRET Fold Response (CCR4; 0.1μM tracer): 0.91; NanoBRET Fold Response (CCR4; 1μM tracer): 0.81; NanoBRET Fold Response (CCR7; 0.1μM tracer): 0.88; NanoBRET Fold Response (CCR7; 1μM tracer): 0.96; NanoBRET Fold Response (CXCR4; 0.1μM tracer): 1.11; NanoBRET Fold Response (CXCR4; 1μM tracer): 0.82; NanoBRET Fold Response (FZD5; 0.1μM tracer): 0.88; NanoBRET Fold Response (FZD5; 1μM tracer): 0.88; NanoBRET Fold Response (P2RY1; 0.1μM tracer): 0.99; NanoBRET Fold Response (P2RY1; 1μM tracer): 0.99; NanoBRET Fold Response (BDKRB2; 0.1μM tracer): 1.00; NanoBRET Fold Response (BDKRB2; 1μM tracer): 1.05
5 | O=C(CCOCCOCCOCCOCCNC(=O)CCc1ccc2n1[B-](F)(F)[N+]1=C(c3ccc[nH]3)C=CC1=C2)NCCCN1CCN(C2=Nc3ccccc3Oc3ccc(Cl)cc32)CC1 [Loxapine-a-2-NB590] | 1.03 | 1.19 | 1.00 | 1.11 | 1.03 | 1.03 | 1.01 | 0.89 | 1.01 | 0.97 | 1.08 | 1.16 | –
6 | COc1ccccc1N1CCN(CCCCN2C(=O)c3ccc(CNC(=O)CCOCCOCCOCCOCCNC(=O)CCc4ccc5n4[B-](F)(F)[N+]4=C(c6ccc[nH]6)C=CC4=C5)cc3C2=O)CC1 [NAN-190-2-NB590] | 0.98 | 1.12 | 0.97 | 0.99 | 1.00 | 1.03 | 0.97 | 1.00 | 0.97 | – | 1.08 | 0.98 | –

Reference: PMC8151276, “An Integrated Approach toward NanoBRET Tracers for Analysis of GPCR Ligand Engagement” (Molecules, 2021)
